Consider 18 molecules from ChEMBL document CHEMBL1151531, “Taxol structure-activity relationships: synthesis and biological evaluation of taxol analogs modified at C-7” (Bioorg Med Chem Lett, 1994).

One experiment has as its system HCT-116. The experiment can be described thus: In vitro inhibition of proliferation of human colon cancer line 116 after 72 hrs incubation. The experiment is classed as functional, cell-based. The conditions noted are these: HCT-116, 72 h.
Experiment [1] deals with Tubulin alpha chain (Sus scrofa) (UniProt P02550). The experiment can be described thus: Initial tubulin polymerization rate relative to taxol. In kind it is functional.
The test system of experiment [2] is Mus musculus. Nature of the experiment: Compound was evaluated in vivo against i.p. implanetd M109 tumor on day 5 and 8 post implantation at a dose of 50 (mg/kg/inj)when administered i.p. The experiment is classed as functional.
Experiment [3] concerns Mus musculus. The experiment can be described thus: Compound was evaluated in vivo against i.p. implanted M109 tumor on day 5 and 8 post implantation at a dose of 50-75 mg/kg/injection when administered i.p. The experiment is classed as functional.
For experiment [4], the system named is Mus musculus. Nature of the experiment: Compound was evaluated in vivo against i.p. implanetd M109 tumor on day 5 and 8 post implantation at a dose of 40 mg/kg/injection when administered i.p. In kind it is functional. The conditions noted are these: route intraperitoneal.
Experiment [5] concerns Mus musculus. Nature of the experiment: Compound was evaluated in vivo against i.p. implanetd M109 tumor on day 5 and 8 post implantation at a dose of 64 mg/kg/injection when administered i.p. In kind it is functional. The conditions noted are these: route intraperitoneal.
For experiment [6], the system named is Mus musculus. Nature of the experiment: Compound was evaluated in vivo against i.p. implanetd M109 tumor on day 5 and 8 post implantation at a dose of 132 mg/kg/injection when administered i.p. The conditions noted are these: route intraperitoneal. The experiment is classed as functional.
The test system of experiment [7] is Mus musculus. Nature of the experiment: Compound was evaluated in vivo against i.p. implanetd M109 tumor on day 5 and 8 post implantation at a dose of 30 mg/kg/injection when administered i.p. The conditions noted are these: route intraperitoneal. In kind it is functional.
Experiment [8] relates to Mus musculus. Nature of the experiment: Compound was evaluated in vivo against i.p. implanetd M109 tumor on day 5 and 8 post implantation at a dose of 32 mg/kg/injection when administered i.p. The experiment is classed as functional. The conditions noted are these: route intraperitoneal.
The subject of experiment [9] is Mus musculus. The experiment can be described thus: Compound was evaluated in vivo against i.p. implanetd M109 tumor on day 5 and 8 post implantation when administered i.p.; Scheduled. In kind it is functional, organism-based.
For experiment [10], the system named is Mus musculus. The experiment can be described thus: Compound was evaluated in vivo against i.p. implanetd M109 tumor on day 5 and 8 post implantation at a dose of 80 mg/kg/injection when administered i.p. The experiment is classed as functional. The conditions noted are these: route intraperitoneal.
Experiment [11] has as its system Mus musculus. The experiment can be described thus: Compound was evaluated in vivo against i.p. implanetd M109 tumor on day 5 and 8 post implantation at a dose of 60 mg/kg/injection when administered i.p. The conditions noted are these: route intraperitoneal. In kind it is functional.

Sequence of Tubulin alpha chain (Sus scrofa) (P02550 whole entry, looked up): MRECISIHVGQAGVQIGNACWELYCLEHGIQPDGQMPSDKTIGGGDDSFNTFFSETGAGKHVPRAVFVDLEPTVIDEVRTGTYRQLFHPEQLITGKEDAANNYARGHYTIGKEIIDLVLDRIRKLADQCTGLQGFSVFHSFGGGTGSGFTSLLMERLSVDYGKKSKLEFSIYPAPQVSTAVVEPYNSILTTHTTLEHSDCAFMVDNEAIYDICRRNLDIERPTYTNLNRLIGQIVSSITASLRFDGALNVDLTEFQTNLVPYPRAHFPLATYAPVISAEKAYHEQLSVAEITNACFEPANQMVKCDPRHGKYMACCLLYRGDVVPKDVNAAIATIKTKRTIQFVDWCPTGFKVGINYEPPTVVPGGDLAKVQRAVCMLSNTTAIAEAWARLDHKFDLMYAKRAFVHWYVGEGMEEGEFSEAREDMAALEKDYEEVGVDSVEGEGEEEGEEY

In the case of `CC[Si](CC)(CC)OC1C[C@H]2OC[C@@]2(OC(C)=O)C2[C@H](OC(=O)c3ccccc3)[C@]3(O)C[C@H](OC(=O)[C@H](O)[C@@H](NC(=O)c4ccccc4)c4ccccc4)C(C)=C([C@@H](OC(C)=O)C(=O)[C@]12C)C3(C)C` (stereo partly drawn), in the experiment on HCT-116, the IC50 was above 78 nM. Further, in experiment [1], the Initial rate ratio came out at 0.53.

For the molecule `CC(=O)O[C@H]1C(=O)[C@]2(C)CC[C@H]3OC[C@@]3(OC(C)=O)C2[C@H](OC(=O)c2ccccc2)[C@]2(O)C[C@H](OC(=O)[C@H](O)[C@@H](NC(=O)c3ccccc3)c3ccccc3)C(C)=C1C2(C)C` (stereo partly drawn), in the experiment on HCT-116, the 50% inhibitory concentration (IC50) was 4 nM. Moreover, in the experiment with Mus musculus [2], the “Max T/C” value is 157. For the same molecule, the Initial rate ratio in [1] was 0.23.

Take `CC(=O)O[C@H]1C(=O)[C@]2(C)C(OC(=O)NCCCC(=O)O)C[C@H]3OC[C@@]3(OC(C)=O)C2[C@H](OC(=O)c2ccccc2)[C@]2(O)C[C@H](OC(=O)[C@H](O)[C@@H](NC(=O)c3ccccc3)c3ccccc3)C(C)=C1C2(C)C` (stereo partly drawn): the IC50 with HCT-116 was above 3900 nM. Also, the Initial rate ratio in experiment [1] was found to be 0.71.

Turning to `CC(=O)O[C@H]1C(=O)[C@@]2(C)[C@H]([C@H](OC(=O)c3ccccc3)[C@]3(O)C[C@H](OC(=O)[C@H](O)[C@@H](NC(=O)c4ccccc4)c4ccccc4)C(C)=C1C3(C)C)[C@]1(OC(C)=O)CO[C@@H]1C[C@@H]2O` [PACLITAXEL], in the experiment on Mus musculus [3], the “Max T/C” value was determined as 276.

`CC(=O)O[C@H]1C(=O)[C@@]2(C)C([C@H](OC(=O)c3ccccc3)[C@]3(O)C[C@H](OC(=O)[C@H](O)[C@@H](NC(=O)c4ccccc4)c4ccccc4)C(C)=C1C3(C)C)[C@]1(OC(C)=O)CO[C@@H]1C[C@@H]2OC(=O)CCl` (stereo partly drawn) registered an IC50 with HCT-116 of 7 nM. The Initial rate ratio in experiment [1] is 0.81.

In turn, `CCCCNC(=O)OC1C[C@H]2OC[C@@]2(OC(C)=O)C2[C@H](OC(=O)c3ccccc3)[C@]3(O)C[C@H](OC(=O)[C@H](O)[C@@H](NC(=O)c4ccccc4)c4ccccc4)C(C)=C([C@@H](OC(C)=O)C(=O)[C@]12C)C3(C)C` (stereo partly drawn) yielded a 50% inhibitory concentration (IC50) in the experiment with HCT-116 of 46 nM. Moreover, in experiment [1], the Initial rate ratio is 0.96.

Molecule `CC(=O)O[C@H]1C(=O)[C@@]2(C)C([C@H](OC(=O)c3ccccc3)[C@]3(O)C[C@H](OC(=O)[C@H](O)[C@@H](NC(=O)OC(C)(C)C)c4ccccc4)C(C)=C1C3(C)C)[C@]1(OC(C)=O)CO[C@@H]1C[C@H]2F` (stereo partly drawn) came in with a half-inhibitory concentration (IC50) with HCT-116 of 4.7 nM. In addition, in the experiment on Mus musculus [4], the “Max T/C” value worked out at 147. In experiment [1], the Initial rate ratio was 0.8.

`CC(=O)O[C@H]1C(=O)[C@]2(C)CC[C@H]3OC[C@@]3(OC(C)=O)C2[C@H](OC(=O)c2ccccc2)[C@]2(O)C[C@H](OC(=O)[C@H](O)[C@@H](NC(=O)OC(C)(C)C)c3ccccc3)C(C)=C1C2(C)C` (stereo partly drawn) displayed a concentration for half-maximal inhibition (IC50) with HCT-116 of 1.6 nM. Moreover, in the experiment with Mus musculus [5], the “Max T/C” value came to 156. Further, the Initial rate ratio in experiment [1] was 0.8.

The molecule `CCOC(=O)O[C@H]1C[C@H]2OC[C@@]2(OC(C)=O)C2[C@H](OC(=O)c3ccccc3)[C@]3(O)C[C@H](OC(=O)[C@H](O)[C@@H](NC(=O)c4ccccc4)c4ccccc4)C(C)=C([C@@H](OC(C)=O)C(=O)[C@@]21C)C3(C)C` (stereo partly drawn) showed an IC50 in the experiment with HCT-116 of 6 nM. Moreover, the “Max T/C” value in the experiment on Mus musculus [4] was determined as 289. In addition, the Initial rate ratio in experiment [1] is 0.72.

`CC(=O)O[C@H]1C(=O)[C@@]2(C)C([C@H](OC(=O)c3ccccc3)[C@]3(O)C[C@H](OC(=O)[C@H](O)[C@@H](NC(=O)c4ccccc4)c4ccccc4)C(C)=C1C3(C)C)[C@]1(OC(C)=O)CO[C@@H]1C[C@H]2F` (stereo partly drawn) yielded an IC50 with HCT-116 of 11 nM. The “Max T/C” value in the experiment on Mus musculus [6] is listed as 185. Besides, the Initial rate ratio in [1] is 1.45.

With `CC(=O)O[C@H]1C(=O)[C@]2(C)C(O[Si](C)(C)c3ccccc3)C[C@H]3OC[C@@]3(OC(C)=O)C2[C@H](OC(=O)c2ccccc2)[C@]2(O)C[C@H](OC(=O)[C@H](O)[C@@H](NC(=O)c3ccccc3)c3ccccc3)C(C)=C1C2(C)C` (stereo partly drawn), the IC50 with HCT-116 is above 78 nM. In [1], the Initial rate ratio turned out to be 0.

`CC(=O)O[C@H]1C(=O)[C@@]2(C)C([C@H](OC(=O)c3ccccc3)[C@]3(O)C[C@H](OC(=O)[C@H](O)[C@@H](NC(=O)c4ccccc4)c4ccccc4)C(C)=C1C3(C)C)[C@]1(OC(C)=O)CO[C@@H]1C[C@H]2O` (stereo partly drawn) returned an IC50 in the experiment on HCT-116 of 2 nM. Besides, the figures for the “Max T/C” value in the experiment with Mus musculus [7] and in the experiment on Mus musculus [8] were 126 and 154, respectively.

Regarding `CC(=O)O[C@H]1C(=O)[C@]2(C)C(OC(=O)NCCN(C)C)C[C@H]3OC[C@@]3(OC(C)=O)C2[C@H](OC(=O)c2ccccc2)[C@]2(O)C[C@H](OC(=O)[C@H](O)[C@@H](NC(=O)c3ccccc3)c3ccccc3)C(C)=C1C2(C)C` (stereo partly drawn), the 50% inhibitory concentration (IC50) in the experiment with HCT-116 was above 100 nM. Besides, the Initial rate ratio in [1] worked out at 0.4.

The molecule `CC(=O)O[C@@]12CO[C@@H]1C[C@H](O)[C@@]1(C)C(=O)[C@H](O)C3=C(C)[C@@H](OC(=O)[C@H](O)[C@@H](NC(=O)OC(C)(C)C)c4ccccc4)C[C@@](O)([C@@H](OC(=O)c4ccccc4)[C@H]21)C3(C)C` [DOCETAXEL] yielded a 50% inhibitory concentration (IC50) in the experiment on HCT-116 of 3 nM. Also, the “Max T/C” value in the experiment with Mus musculus [9] is reported as “Scheduled”. For the same molecule, in experiment [1], the Initial rate ratio is 2.

Consider `CC(=O)O[C@H]1C(=O)[C@]23C[C@H]2C[C@H]2OC[C@@]2(OC(C)=O)C3[C@H](OC(=O)c2ccccc2)[C@]2(O)C[C@H](OC(=O)[C@H](O)[C@@H](NC(=O)c3ccccc3)c3ccccc3)C(C)=C1C2(C)C` (stereo partly drawn), for which the IC50 in the experiment on HCT-116 came to 8 nM. For the same molecule, the “Max T/C” value in the experiment with Mus musculus [10] was determined as 156. Further, the Initial rate ratio in experiment [1] turned out to be 0.56.

In turn, `CC(=O)O[C@H]1C(=O)[C@]2(C)C=C[C@H]3OC[C@@]3(OC(C)=O)C2[C@H](OC(=O)c2ccccc2)[C@]2(O)C[C@H](OC(=O)[C@H](O)[C@@H](NC(=O)c3ccccc3)c3ccccc3)C(C)=C1C2(C)C` (stereo partly drawn) had an IC50 in the experiment on HCT-116 of 5 nM. Besides, the “Max T/C” value in the experiment with Mus musculus [11] was found to be 161. In [1], the Initial rate ratio was 1.31.

As to `CC(=O)O[C@H]1C(=O)[C@@]2(C)C([C@H](OC(=O)c3ccccc3)[C@]3(O)C[C@H](OC(=O)[C@H](O)[C@@H](NC(=O)c4ccccc4)c4ccccc4)C(C)=C1C3(C)C)[C@]1(OC(C)=O)CO[C@@H]1C[C@@H]2OS(C)(=O)=O` (stereo partly drawn), the Initial rate ratio in experiment [1] is 1.1.

With `CC(=O)O[C@H]1C(=O)[C@]2(C)C(O[Si](C)(C)C)C[C@H]3OC[C@@]3(OC(C)=O)C2[C@H](OC(=O)c2ccccc2)[C@]2(O)C[C@H](OC(=O)[C@H](O)[C@@H](NC(=O)c3ccccc3)c3ccccc3)C(C)=C1C2(C)C` (stereo partly drawn), the IC50 with HCT-116 was above 60 nM. For the same molecule, in experiment [1], the Initial rate ratio turned out to be 0.
